Literature values, collected in patent US8079695B2, “Inkjet inks having improved print uniformity” (Eastman Kodak Company, priority 2008, dated 2011).

Conditions: measured and predicted values (handbooks or ACD/LABS v8.14); lowest pKa given for di-carboxylic acids

| pKa | SMILES |
| --- | --- |
| 1.7 | C=CC(=O)NC(C)(C)CS(=O)(=O)O [2-acrylamido-2-methylpropane sulfonic acid] |
| 1.0 | C=C(C)C(=O)OCCS(=O)(=O)O [2-propenoic acid, 2-methyl-, 2-sulfoethyl ester] |
| 1.5 | C=CCS(=O)(=O)O [Allyl sulfonic acid] |
| 3.1 | C/C(=C\C(=O)O)C(=O)O [Mesaconic acid] |
| 4.7 | C=C(C)C(=O)O [Methacrylic acid (MA), Methacrylic acid] |
| 3.3 | C=C(Cl)C(=O)O [α-chloroacrylic acid] |

| SMILES | pKa |
| --- | --- |
| C=CC(=O)O [Acrylic acid] | 4.3 |
| O=C(O)/C=C/Cl [trans-chloroacrylic acid] | 3.7 |
